The subject of series [1] is monkeys. The following applies: cited from earlier work.
Series [2] relates to heavy smokers. As to the kind of experiment: Treatment of heavy smokers using anticholinergic therapy. The format is in vivo, human. The following applies: heavy smokers unable to visit for a booster. The source says:
Some individuals were characterized as heavy smokers and smoked 20 or more cigarettes per day. […] All of these patients received normal supportive treatment by sedative drugs and counseling on coping with and adjusting to addiction.
Booster injections were offered to all patients.

The conditions of series [3]: intramuscular or intravenous injection; cited from earlier work.
The test system of series [4] is superior cervical ganglia. The following applies: cited from earlier work.

As to `CN1[C@@H]2C[C@@H](OC(=O)[C@H](CO)c3ccccc3)C[C@H]1[C@@H]1O[C@@H]12` [scopolamine], the “effect on smoking (puffing pattern)” value in series [1] was “decreased smoking”.
`CN1[C@@H]2CC[C@H]1C[C@@H](OC(c1ccccc1)c1ccccc1)C2` [benztropine, 8-azabicyclo [3.2.1]octane, 3-(diphenylmethoxy)-, endo, methanesulfonate]: the patient-reported well-being entry in series [2] (a few weeks after treatment) is “feeling well”. Besides, in series [2] (given during the 5 days after the first injection), the “relapse to smoke again” value is “no immediate or short term relapse”. The onset of action result in series [3] is reported as “within minutes”.
In the case of `CN1CCCC1c1cccnc1` (stereo not shown) [nicotine], the acetylcholinesterase entry in series [4] (after withdrawal of nicotine) is given as “about 117 % of controls”. Besides, the acetylcholine increase result in series [4] (chronic nicotine treatment) is on record as “about 35%”.
For the compound `C[C@H](N)Cc1ccccc1` [d-amphetamine], the “effect on smoking (puffing pattern)” value in series [1] is “decreased smoking”.

The values are drawn from patent US20070287727A1, “Anti-Nicotine Treatment” (priority 2006, published 2007).
